The target of one assay is T1, human CB1 receptor (Homo sapiens, UniProt P21554).
T1 construct: expressed in transfected cells; host or cells: human embryonic kidney (HEK) cells, Semliki Forest Virus system, membrane preparations
Put plainly: CB1 receptor affinity ([3H]-CP-55,940 displacement, HEK cell membranes). Conditions: displacement of radioligand [3H]-CP-55,940. Format: binding. The method, then: (§1) The affinity of the compounds of the invention for cannabinoid receptors was determined using membrane preparations of human embryonic kidney (HEK) cells in which the human CB1 receptor is transiently transfected using a Semliki Forest Virus system in conjunction with [3H]-CP-55,940 as radioligand. After incubation of freshly prepared cell membrane preparation with the [^3H]-ligand, with or without addition of compounds of the invention, separation of bound and free ligand was performed by filtration over glass fiber filters. Radioactivity on the filter was measured by scintillation counting.
(§2) The ability of the compounds to displace the radioligand [^3H]-CP-55,940 was measured at a concentration of 10 μM and values provided as [% inhibition @ 10 μM] both for the CB1 and CB2 receptor assay, The lower % inhibition is, the lower the likelihood of side effects based on CB1 or CB2 receptor inhibition is.

In the next assay the target is T2, human CB2 receptor (Homo sapiens, UniProt P34972).
T2 construct: expressed in transfected cells; host or cells: human embryonic kidney (HEK) cells, Semliki Forest Virus system, membrane preparations
Put plainly: CB2 receptor affinity ([3H]-CP-55,940 displacement, HEK cell membranes). It counts as binding. The conditions noted are these: displacement of radioligand [3H]-CP-55,940. The method, then:
as §1, with “cannabinoid CB2” for “cannabinoid”, “CB2” for “CB1”, “[^3H]-CP-55,940” for “[3H]-CP-55,940”
as §2

The subject of a further assay is ABCA1 protein. Put plainly: Detection of upregulation of ABCA1 protein in cells (ApoA-I binding, high content image analysis). Format: cell-based. Conditions: THP-1 macrophage cells; for EC50: ABCA1 protein increasing efficacy; for % increase of ABCA1 at 3 μM: 24 hrs with compound. The method, then: The ability of compounds of the invention to increase the level of ABCA1 protein is determined in replicate cultures of THP-1 macrophage cells in 96-well microplates. Cells are plated at an initial density of 100,000 cells/well in 100 μl medium and differentiated to adherent macrophages with the addition of PMA (100 nM) for 68 hrs in 10% fetal bovine serum, 3 μl/L of b-mercaptoethanol, RPMI-1640 medium. Then, cells are incubated with RPMI-1640 medium containing 1% FCS, 25 μg/ml acetylated LDL, for 24 hours at 37°. Following incubation with acetylated LDL, cells are washed twice with 50 μl PBS and incubated with 100 μl of RPMI-1640 medium containing the compound of interest solubilized in DMSO for an additional 24 hrs. The final DMSO concentration in presence of cells is maintained at 0.5%. ApoA-I binding assay using High Content Image Analysis is initiated by replacing with fresh medium, RPMI without Phenol Red, 0.2% BSA containing AlexaFluor®647 labeled ApoA-I for 2 h/37° C./5% CO2. Then, cells are fixed with 4% Formaldehyde inPBS (15 min, RT). Following Nuclei are stained with Hoechst solution (3 μM PBS) and Cytoplasm with Cell Mask Blue (2 μg/ml PBS), 15 min, RT. Finally the stained cells are fixed with a second round of formaldehyde treatment. Fixed stained cells are washed and kept in PBS at 4° C. and can be read immediately until one month after preparation.
The Alexa Fluor 647-labeled Apolipoprotein A-I (20 nM) was prepared as follows: Human recombinant Apolipoprotein A-I (ApoA-I) was exchanged to a buffer of 0.02 M NaHCO3 at pH 8.2 on an NAP desalting column (GE Healthcare) and brought to a concentration to 40 μM (1.13 mg/ml) by adjustment with the same buffer. The ApoA-I was fluorescently labeled by incubation with Alexa Fluor carboxylic acid succimidyl ester. (Alexa Fluor 647, Invitrogen A-20006) at a 2:1 molar ratio (Alexa to ApoA-I) for 1 h under shaking at RT. The remaining unconjugated label was removed by buffer exchange to 0.02M NaHCO3 at pH 8.2.
Imaging and data collection were performed on an OPERA confocal microplate imaging reader using a 20× water immersion objective and UV360 or 405 laser to identify the cell nuclei and a 635 laser to identify the fluorescent ApoA-I. Eight fields of view are captured per well. Image capture and analysis was performed with the Acapella software. Background fluorescence detected in control wells without ApoA-I was subtracted.
Using XLfit3 program (ID Business Solutions Ltd. UK), the model 205 for Dose Response One Site is used to calculate the EC50 values. The compounds of the present invention increase the level of ABCA1 protein by more than 45% at a concentration of 3 μM. […] Even more preferably, the compounds of the present invention have EC50 values in a range of 0.1 μM to 3 μM.

T2 sequence (P34972 whole entry): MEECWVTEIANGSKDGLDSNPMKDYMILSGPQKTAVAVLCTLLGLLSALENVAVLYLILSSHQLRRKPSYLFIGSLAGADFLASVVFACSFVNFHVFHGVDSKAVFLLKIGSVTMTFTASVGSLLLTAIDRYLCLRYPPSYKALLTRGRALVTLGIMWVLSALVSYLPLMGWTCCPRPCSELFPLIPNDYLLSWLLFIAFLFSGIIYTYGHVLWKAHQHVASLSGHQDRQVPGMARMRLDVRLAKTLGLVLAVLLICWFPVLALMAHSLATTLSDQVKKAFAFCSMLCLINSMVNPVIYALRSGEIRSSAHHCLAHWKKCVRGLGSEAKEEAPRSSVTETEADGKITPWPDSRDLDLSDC
T1 sequence (P21554 whole entry): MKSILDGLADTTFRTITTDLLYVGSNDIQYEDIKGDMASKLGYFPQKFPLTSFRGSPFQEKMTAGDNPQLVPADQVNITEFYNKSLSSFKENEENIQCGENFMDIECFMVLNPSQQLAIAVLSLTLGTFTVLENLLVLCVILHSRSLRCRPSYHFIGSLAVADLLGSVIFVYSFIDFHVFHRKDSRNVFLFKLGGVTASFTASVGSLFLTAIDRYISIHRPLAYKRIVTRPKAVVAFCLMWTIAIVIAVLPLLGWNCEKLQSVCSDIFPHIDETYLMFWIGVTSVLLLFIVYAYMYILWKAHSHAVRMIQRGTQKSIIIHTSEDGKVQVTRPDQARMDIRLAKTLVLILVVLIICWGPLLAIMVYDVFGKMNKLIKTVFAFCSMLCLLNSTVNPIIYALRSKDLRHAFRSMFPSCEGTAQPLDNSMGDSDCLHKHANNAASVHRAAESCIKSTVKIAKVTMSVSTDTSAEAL

Usually inhibition stands for the change of the read-out against control, counted positive when it falls. For orientation: EC50 means the concentration giving half of the maximal effect. With `CCc1ccc(-c2cc(NC(=O)c3cccnc3)cnc2OCC(F)(F)F)cc1` [Example 47, N-(5-(4-ethylphenyl)-6-(2,2,2-trifluoroethoxy)pyridin-3-yl)nicotinamide], the figures for the inhibition at 10 µM at human CB1 receptor and at human CB2 receptor were 34% and 5%, respectively. This compound also returned an EC50 with ABCA1 protein of 1.36 µM.

Regarding `O=C(Nc1cnc(OCC(F)(F)F)c(-c2ccc(Cl)cc2F)c1)c1cccnc1` [Example 46, N-(5-(4-chloro-2-fluorophenyl)-6-(2,2,2-trifluoroethoxy)pyridin-3-yl)nicotin-amide], the inhibition at 10 µM at human CB1 receptor was 40%; at human CB2 receptor, -1%. Besides, in the assay with ABCA1 protein, the “% increase of ABCA1 at 3 μM” value is reported as >45% @ 3 μM.

Turning to `CCCCC(=O)Nc1cnc(OCC(F)(F)F)c(-c2ccc(Cl)cc2)c1` [Example 1, pentanoic acid[5-(4-chloro-phenyl)-6-(2,2,2-trifluoro-ethoxy)-pyridin-3-yl]-amide], the inhibition at 10 µM on human CB1 receptor stood at 45%; on human CB2 receptor it was 9.2%. For the same compound, the “% increase of ABCA1 at 3 μM” value in the assay on ABCA1 protein was >45% @ 3 μM.

In the case of `CC(=O)Nc1cnc(OCC2CC2)c(-c2ccc(Cl)cc2)c1` [Example 9, N-[5-(4-chloro-phenyl)-6-cyclopropylmethoxy-pyridin-3-yl]-acetamide], the inhibition at 10 µM was 24% at human CB1 receptor and 9.6% at human CB2 receptor. In the assay on ABCA1 protein, the “% increase of ABCA1 at 3 μM” value was >45% @ 3 μM.

Turning to `O=C(Nc1cnc(OCC(F)(F)F)c(-c2ccc(Cl)cc2)c1)c1ccncn1` [Example 34, 4-pyrimidinecarboxylic acid[5-(4-chloro-phenyl)-6-(2,2,2-trifluoro-ethoxy)-pyridin-3-yl]-amide], the inhibition at 10 µM was found to be 31% at human CB1 receptor and 10% at human CB2 receptor. Besides, the midpoint of the response in the assay on ABCA1 protein, the EC50, lay at 2.4 µM.

As to `O=C(Nc1cnc(OCC(F)(F)F)c(-c2ccc(F)c(Cl)c2)c1)c1cccnc1` [Example 45, N-(5-(3-chloro-4-fluorophenyl)-6-(2,2,2-trifluoroethoxy)pyridin-3-yl)nicotin-amide], the inhibition at 10 µM on human CB1 receptor turned out to be 11%; on human CB2 receptor, 13%. Moreover, the EC50 with ABCA1 protein came out at 1.03 µM.

Turning to `CNC(=O)c1ccc(C(=O)Nc2cnc(OCC(F)(F)F)c(-c3ccc(Cl)cc3)c2)cn1` [Example 84, N5-(5-(4-chlorophenyl)-6-(2,2,2-trifluoroethoxy)pyridin-3-yl)-N2-methylpyridine-2,5-dicarboxamide], the values for the inhibition at 10 µM on human CB1 receptor and at human CB2 receptor were 23% and 3%, respectively. Also, in the assay with ABCA1 protein, the “% increase of ABCA1 at 3 μM” value was >45% @ 3 μM.

`CCc1ccc(-c2cc(NC(=O)c3cncnc3)cnc2OCC(F)(F)F)cc1` [Example 56, N-(5-(4-ethylphenyl)-6-(2,2,2-trifluoroethoxy)pyridin-3-yl)pyrimidine-5-carboxamide]: the figures for the inhibition at 10 µM on human CB1 receptor and on human CB2 receptor were 35% and 0%, respectively. Also, in the assay with ABCA1 protein, the “% increase of ABCA1 at 3 μM” value is listed as >45% @ 3 μM.

On to `O=C(Nc1cnc(OCC(F)(F)F)c(-c2ccc(Cl)cc2)c1)c1cncc(Br)c1` [Example 85, 5-bromo-N-(5-(4-chlorophenyl)-6-(2,2,2-trifluoroethoxy)pyridin-3-yl)nicotinamide], for which the inhibition at 10 µM on human CB1 receptor is 38%; at human CB2 receptor, 5%. The “% increase of ABCA1 at 3 μM” value in the assay on ABCA1 protein is given as >45% @ 3 μM.

With `O=C(Nc1cnc(OCC(F)(F)F)c(-c2ccc(Cl)cc2)c1)c1cc[nH]n1` [Example 24, 1H-pyrazole-3-carboxylic acid[5-(4-chloro-phenyl)-6-(2,2,2-trifluoro-ethoxy)-pyridin-3-yl]-amide], the figures for the inhibition at 10 µM on human CB1 receptor and at human CB2 receptor were 25% and -1%, respectively. Besides, in the assay on ABCA1 protein, a half-maximal effect (EC50) was put at 2.31 µM.

As to `Cc1cc(-c2cc(NC(=O)c3cccnn3)cnc2OCC(F)(F)F)ccc1Cl` [Example 62, N-(5-(4-chloro-3-methylphenyl)-6-(2,2,2-trifluoroethoxy)pyridin-3-yl)pyridazine-3-carboxamide], the inhibition at 10 µM on human CB1 receptor was -4%; at human CB2 receptor, 4%. Besides, the EC50 in the assay on ABCA1 protein was determined as 2.39 µM.

In the case of `CCc1ccc(-c2cc(NC(=O)c3cccnn3)cnc2OCC(F)(F)F)cc1` [Example 65, N-(5-(4-ethylphenyl)-6-(2,2,2-trifluoroethoxy)pyridin-3-yl)pyridazine-3-carboxamide], the inhibition at 10 µM came out at 19% on human CB1 receptor and 5% at human CB2 receptor. Moreover, the EC50 in the assay with ABCA1 protein came out at 0.27 µM.

On to `C[C@H](Oc1ncc(NC(=O)c2cccnc2)nc1-c1ccc(Cl)cc1)C(F)(F)F` [Example 48, (S)-N-(6-(4-chlorophenyl)-5-(1,1,1-trifluoropropan-2-yloxy)pyrazin-2-yl)nicotinamide], for which the inhibition at 10 µM at human CB1 receptor is 40%; at human CB2 receptor it was -2%. Moreover, the “% increase of ABCA1 at 3 μM” value with ABCA1 protein is >45% @ 3 μM.

Take `O=C(Nc1cnc(OCC2CC2)c(-c2ccc(Cl)cc2)c1)c1ccccc1` [Example 8, N-[5-(4-chloro-phenyl)-6-cyclopropylmethoxy-pyridin-3-yl]-benzamide]: the inhibition at 10 µM is 52% at human CB1 receptor and 15% at human CB2 receptor. In the assay on ABCA1 protein, the EC50 was 2.77 µM.

Regarding `O=C(Nc1cnc(OCC(F)(F)F)c(-c2ccc(F)c(Cl)c2)c1)c1cncnc1` [Example 54, N-(5-(3-chloro-4-fluorophenyl)-6-(2,2,2-trifluoroethoxy)pyridin-3-yl)pyrimidine-5-carboxamide], the inhibition at 10 µM on human CB1 receptor came to 21%; at human CB2 receptor it was 10%. Further, the “% increase of ABCA1 at 3 μM” value in the assay with ABCA1 protein is >45% @ 3 μM.

For the compound `O=C(Nc1cnc(OCC(F)(F)F)c(-c2ccc(Cl)cc2)c1)c1ccnc(O)c1` [Example 32, N-[5-(4-chloro-phenyl)-6-(2,2,2-trifluoro-ethoxy)-pyridin-3-yl]-1,2-dihydro-2-oxo-4-pyridinecarboxylic acid amide], the inhibition at 10 µM at human CB1 receptor was 21%; at human CB2 receptor, 0.9%. In the assay on ABCA1 protein, the EC50 came out at 1 µM.

Consider `Cc1cnccc1C(=O)Nc1cnc(OCC(F)(F)F)c(-c2ccc(Cl)cc2)c1` [Example 18, N-[5-(4-chloro-phenyl)-6-(2,2,2-trifluoro-ethoxy)-pyridin-3-yl]-3-methyl-4-pyridinecarboxylic acid amide], for which the inhibition at 10 µM on human CB1 receptor turned out to be 37%; on human CB2 receptor, 3%. In addition, in the assay with ABCA1 protein, the “% increase of ABCA1 at 3 μM” value is given as >45% @ 3 μM.

Turning to `Cc1ocnc1C(=O)Nc1cnc(OC2CCC2)c(-c2ccc(Cl)cc2)c1` [Example 82, 5-Methyl-oxazole-4-carboxylic acid[5-(4-chloro-phenyl)-6-cyclobutoxy-pyridin-3-yl]-amide], the figures for the inhibition at 10 µM on human CB1 receptor and on human CB2 receptor were 29% and 37%, respectively. For the same compound, in the assay with ABCA1 protein, the “% increase of ABCA1 at 3 μM” value is reported as >45% @ 3 μM.

Turning to `O=C(Nc1cnc(OC2CCC2)c(-c2ccc(Cl)cc2)n1)c1cncnc1` [Example 51, N-(6-(4-chlorophenyl)-5-cyclobutoxypyrazin-2-yl)pyrimidine-5-carboxamide], the inhibition at 10 µM at human CB1 receptor was 48%; at human CB2 receptor it was 6%. For the same compound, the “% increase of ABCA1 at 3 μM” value with ABCA1 protein was >45% @ 3 μM.

For the origin of these results see US8410107B2, “N-pyridin-3-yl or N-pyrazin-2-yl carboxamides” (Hoffmann-La Roche Inc., priority 2010, dated 2013).
